The target of assay [1] is T1, Escherichia coli methylmalonyl-CoA decarboxylase (YgfG, MMCD) (Escherichia coli, UniProt P52045).
T1 construct: made in house; host or cells: E. coli BL21 (DE3)
The assay can be described thus: Inhibition assays of MMCD by 4-9 (HPLC detection, kcat/Km approximation at low substrate). The format is biochemical. The settings on record: 200 μM methylmalonyl-CoA, 1 nM MMCD, pH 6.5, 25° C.; read-out: Ki (inhibition constant, competitive inhibition). As to the method:
Initially we attempted to use isothermal titration calorimetry to determine the binding affinity of our analogs to MMCD. […] Because of this secondary site causes problems with biophysical characterization of binding affinity, we used the kcat/Km approximation at low substrate concentrations for the determination of inhibition constants for our analogs. These assays gave Kis of 7.5±1.1 μM for 4, 3.8±1.6 μM for 5, 7.1±1.7 μM for 6, 10.8±2.3 μM for 7, 20.6±2.7 μM for 8 and 19.8±1.4 μM for 9. The sulfonate isosteres bind tighter than the nitro isosteres in general. Our results have been published and incorporated herein by reference in its entirety (Stunkard, L M, et al., J. Am. Chem. Soc. 2019, 141, 5121-5124).
General procedure for MMCD-His6 catalyzed activity assays. The reactions were performed in a 550 μL reaction mixture which contained 50 mM potassium phosphate buffer (KH2PO4/K2HPO4) at pH 6.5 unless otherwise noted, 10 mM MgCl2, methylmalonyl-CoA and the assay was initiated by the addition of MMCD. Reaction mixtures were incubated at 25° C., 65 μL aliquots taken at times noted below were quenched with 25 μL of 50% TFA v/v, precipitating the protein. Centrifugation at 2000 rpm at 25° C. for 10 minutes was used to pellet the protein and the supernatant was analyzed via the procedure outlined below.
General procedure for determination of methylmalonyl-CoA, propionyl-CoA and CoA concentrations in MMCD catalyzed assays. Substrate and product concentrations were determined using HPLC with detection at A254 over the 250×4.6 mm C18(2) column. The analytes were separated with a 2→25% gradient of 0.1% TFA in water→ACN over 20 min. Peak areas of substrate and products were converted to concentration by summing their areas and dividing each peak by this total to give relative percentages that were converted to concentration by adjusting to the starting concentration of methylmalonyl-CoA. This procedure gave essentially the same values as using a standard curve to generate concentrations for each peak, but enhanced reproducibility due to small differences in recovery from the reaction quenching step outlined above.
Inhibition assays of MMCD by 4-9 were performed according to the general procedure above with 200 μM methylmalonyl-CoA, 4-9 (0 μM, 2 μM, 5 μM, 20 μM, and 50 μM) and the assay was initiated by the addition of 1 nM MMCD. Aliquots were taken at the times 20s, 40s, 60s, 150s, 300s, 600s, 900s, and 1800s.
The initial rates (Vi) of decomposition of methylmalonyl-CoA were determined by fitting the progress curve data to equation (1) which describes a simple exponential decay with rate (k), time (t) and initial substrate concentration ([S]t). The rate of formation of propionyl-CoA or CoA could be fit to equation (2). The derivative at time 0 for Equation (1) divided by enzyme concentration gives the initial rates Vi as shown in equation (3). Using this method rather than linear estimation from the early data points gave similar values. However, it allowed more accurate determination of Vi at early time points. [S]=[S]t·e^−k·t Equation (1) [S]=[S]t·(1−e^k·t) Equation (2) Vi=([S]t·k)/[E] Equation (3)
Inhibition of MMCD by 4-9 was determined by fitting initial rate data to equation (6), which describes competitive inhibition and […] describes the Vi in the presence of inhibitor (Lu, J, et al., Protein Eng. Des. Sel. 2017, 30, 395-399). The values of (Vi·Vis)/(Vii−Vis) and Km/kcat were determined from the initial slopes of Vi or Vii versus substrate concentration rather than from the full assay, see Figures S5 and S9. A minimum of two concentrations were used, 20 or 50 μM of each 4-9 and the experiments were repeated at least twice.

Another assay deals with MMCD (Escherichia coli, UniProt P52045). Conditions: coupled assay, pH 7.2 and 37° C., not optimized; cited from earlier work.
Sequence of MMCD (P52045 whole entry): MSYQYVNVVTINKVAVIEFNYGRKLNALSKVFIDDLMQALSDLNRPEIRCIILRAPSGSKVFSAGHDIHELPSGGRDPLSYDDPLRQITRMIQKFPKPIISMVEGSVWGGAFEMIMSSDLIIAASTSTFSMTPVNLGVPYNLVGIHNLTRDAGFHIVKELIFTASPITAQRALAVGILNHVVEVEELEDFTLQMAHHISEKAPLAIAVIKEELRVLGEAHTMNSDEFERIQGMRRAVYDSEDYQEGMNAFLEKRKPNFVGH

Molecules are shown by their SMILES.

T1 sequence (P52045 whole entry): as above

In general, Ki refers to the dissociation constant of the complex between target and ligand, obtained from inhibition or displacement. Take `CC(C(=O)OCCNC(=O)CCNC(=O)[C@H](O)C(C)(C)COP(=O)(O)OP(=O)(O)OC[C@H]1O[C@@H](n2cnc3c(N)ncnc32)[C@H](O)[C@@H]1OP(=O)(O)O)[N+](=O)[O-]` (some centres unmarked) [compound 8, 2-nitropropionyl-oxa(dethia)CoA]: the Ki in assay [1] amounted to 20.6 ± 2.7 µM.
The term Km denotes the substrate concentration at which the rate is half of its maximum. The kcat is the number of substrate molecules converted per active site and unit of time at saturation. Consider `C[C@@H](C(=O)O)C(=O)SCCNC(=O)CCNC(=O)[C@H](O)C(C)(C)COP(=O)(O)OP(=O)(O)OC[C@H]1O[C@@H](n2cnc3c(N)ncnc32)[C@H](O)[C@@H]1OP(=O)(O)O` [(2S)-methylmalonyl-CoA], for which, on MMCD, the Km was 13.6 µM and the kcat was 1.6 s⁻¹.
On to `CC(C(=O)SCCNC(=O)CCNC(=O)C(O)C(C)(C)COP(=O)(O)OP(=O)(O)OCC1OC(n2cnc3c(N)ncnc32)C(O)C1OP(=O)(O)O)S(=O)(=O)O` (centres unmarked) [compound 4, 2-sulfonatepropionyl-S-CoA], for which the Ki in assay [1] worked out at 7.5 ± 1.1 µM.
Still for that read-out and setting: the same measure for `CC(C(=O)NCCNC(=O)CCNC(=O)C(O)C(C)(C)COP(=O)(O)OP(=O)(O)OCC1OC(n2cnc3c(N)ncnc32)C(O)C1OP(=O)(O)O)S(=O)(=O)O` (centres unmarked) [compound 6, 2-sulfonatepropionyl-amino(dethia)CoA]: 7.1 ± 1.7 µM; for `CC(C(=O)SCCNC(=O)CCNC(=O)[C@H](O)C(C)(C)COP(=O)(O)OP(=O)(O)OC[C@H]1O[C@@H](n2cnc3c(N)ncnc32)[C@H](O)[C@@H]1OP(=O)(O)O)[N+](=O)[O-]` (some centres unmarked) [compound 7, 2-nitropropionyl-S-CoA]: 10.8 ± 2.3 µM; for `CC(C(=O)NCCNC(=O)CCNC(=O)[C@H](O)C(C)(C)COP(=O)(O)OP(=O)(O)OC[C@H]1O[C@@H](n2cnc3c(N)ncnc32)[C@H](O)[C@@H]1OP(=O)(O)O)[N+](=O)[O-]` (some centres unmarked) [compound 9, 2-nitropropionyl-amino(dethia)CoA]: 19.8 ± 1.4 µM.
Regarding `CC(C(=O)OCCNC(=O)CCNC(=O)C(O)C(C)(C)COP(=O)(O)OP(=O)(O)OCC1OC(n2cnc3c(N)ncnc32)C(O)C1OP(=O)(O)O)S(=O)(=O)O` (centres unmarked) [compound 5, 2-sulfonatepropionyl-oxa(dethia)CoA], the Ki in assay [1] worked out at 3.8 ± 1.6 µM.

Values taken from patent publication US11008362B2, “Malonyl-coenzyme A mimics as fatty acid synthase inhibitors and methods of use” (priority 2018, dated 2021).
